# In PubChem BioAssay AID1996:
# Settings: buffer; pH 7.4; 200.0 µM
row,solubility kinetic [µg/mL],SMILES
1,> 43.2,COc1ccccc1-c1cc(C(=O)N2CCOCC2)no1
2,9.8,COC(=O)c1cc(-c2ccccc2)nc2nc(SC)[nH]c(=O)c12
3,42.4,CC(CN1CCCCC1)OC(=O)c1cccc(F)c1.Cl (stereo not drawn)
4,> 26,Cc1cc(=O)n(C)c2ccccc12
5,> 54.7,CCOC(=O)c1c(C)[nH]c(C)c1C(=O)COC(=O)c1ccc(Cl)nc1
6,> 50,Cc1cc(NC(=O)CSCC(=O)NC(C)c2ccccc2)no1 (stereo not drawn)
7,49.3,O=C(CCc1nc(-c2ccccc2Cl)no1)Nc1cccnc1
8,> 51.2,CCOC(=O)Cc1cc(=O)n2[nH]c(C)c(-c3ccccc3OC)c2n1
9,6.5,Cc1ccc(CN(C)C(=O)CCc2c[nH]c3ccccc23)o1
10,38.1,CCC1CCCCN1C(=O)COc1ccc(F)cc1 (stereo not drawn)
11,22.5,CCOc1ccc(C(=O)NCc2ccco2)cc1OCC
12,> 43.4,O=C(O)c1c(C(=O)O)c(-c2ccc(F)cc2)n2c1CCC2
13,4.8,CCC(C)NC(=O)COc1ccc(OCc2ccccc2)cc1 (stereo not drawn)
14,7.1,CCC(C)c1ccccc1N=Cc1ccc2c(c1)OCO2 (stereo not drawn)
15,> 43.1,O=C(CNC(=O)c1ccccc1F)NCc1cccnc1
16,> 62.5,COc1ccc(C(=O)N/C(=C\c2ccccc2)C(=O)Nc2ccccc2C(=O)O)cc1
17,> 47.9,Cl.O=C(COc1ccc(Cl)cc1)NCCN1CCCC1
18,3.9,Cc1ccc2nc(Nc3ccccc3)cc(C)c2c1
19,12.8,COc1nc(Nc2cccc(F)c2)nc(OC)n1
20,> 50.6,CCOC(=O)c1ccc(NC(=S)N2CCN(CCO)CC2)cc1
21,23.4,CN(C)S(=O)(=O)c1cccc(NC(=O)C2CCN(S(=O)(=O)c3cccs3)CC2)c1
22,> 45.7,Cc1[nH]c2c(Cl)cccc2c(=O)c1CN1CCCCCC1

row,solubility kinetic [µg/mL],SMILES
1,> 46.6,NC(=O)c1ccccc1OCC(=O)N1CCCc2ccccc21
2,> 50.8,CCc1ccccc1NC(=O)CN(C1CCCCC1)S(C)(=O)=O
3,> 57.2,O=C(O)c1ccc(S(=O)(=O)N(Cc2cccs2)CC2CCCO2)cc1 (stereo not drawn)
4,35.2,C=C(C)C(=O)Nc1ccc2c(c1)OCCOCCOCCO2
5,49.9,NC(=O)NC(CC(=O)N1CCc2ccccc2C1)c1ccc(Cl)cc1 (stereo not drawn)
6,23.3,O=C(Cc1ccc(Cl)cc1)Nc1cccnc1
7,0.4,COC(=O)c1sccc1NC(=S)N(C)C1CCCCC1
8,0.4,COc1ccc(NC(=S)N2CCN(Cc3ccc(C)cc3)CC2)cc1
9,37.1,CCOC(=O)C1=C(C)OC(N)=C(C#N)C1c1ccccc1 (stereo not drawn)
10,14.3,COc1ccc(OCC(=O)Nc2nc3c(s2)CCCC3)cc1
11,35.4,O=C(NCc1ccccn1)C(=O)Nc1cccc2ccccc12
12,31.3,CCOC(=O)C1(Cc2ccccc2)CCCN(Cc2ccncc2)C1 (stereo not drawn)
13,> 67.4,Cc1ccc(S(=O)(=O)N2CCCCC2)cc1NC(=O)CSc1nnc(C2CC2)n1C
14,< 0.2,Cc1cccc(Nc2nc(-c3ccc(F)cc3)cs2)n1
15,27.9,CCCOc1ccc(/C=C2/C(=O)ON=C2C)cc1Cl
16,32.5,Cc1cc(Nc2cccc(Cl)c2)c2ccccc2n1
17,1.3,O=C1c2ccccc2C(O)(c2ccccc2)N1CCc1ccccc1 (stereo not drawn)
18,> 60,NC(=O)c1ccc[n+](CC(=O)c2ccc(Br)cc2)c1.[Br-]
19,11.1,Cc1ccc(NC(=S)Nc2ccc(F)cc2)cc1
20,> 47.5,Cc1csc(SCC(=O)Nc2ccc(F)cc2Cl)n1
21,0.9,CC(NC(=O)c1ccco1)c1nc(-c2ccc(C(C)(C)C)cc2)no1 (stereo not drawn)
